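In this assay, cells in 96-well plates receive the compound at five concentrations for 48 hours. Endpoints are linearly interpolated between the surrounding concentrations. The concentration for full growth arrest is given as TGI.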
Key:
Assay in all cases: DTP human tumour cell line panel, 48 h
HOP-62 NSCLC = system: HOP-62 NSCLC
SK-MEL-28 melanoma = system: SK-MEL-28 melanoma
LOX IMVI melanoma = system: LOX IMVI melanoma
NCI-H460 lung = system: NCI-H460 lung
IGROV1 ovarian = system: IGROV1 ovarian
SK-MEL-5 melanoma = system: SK-MEL-5 melanoma
OVCAR-8 ovarian = system: OVCAR-8 ovarian
EKVX NSCLC = system: EKVX NSCLC
SF-295 CNS = system: SF-295 CNS
KM12 colon = system: KM12 colon
HCT-116 colon = system: HCT-116 colon
SW-620 colon = system: SW-620 colon
MALME-3M melanoma = system: MALME-3M melanoma
RXF 393 renal = system: RXF 393 renal
HCT-15 colon = system: HCT-15 colon
OVCAR-4 ovarian = system: OVCAR-4 ovarian
PC-3 prostate = system: PC-3 prostate
MDA-MB-435 = system: MDA-MB-435
DU-145 prostate = system: DU-145 prostate
NCI/ADR-RES ovarian = system: NCI/ADR-RES ovarian

Row | SMILES | TGI (HOP-62 NSCLC) [µM] | TGI (SK-MEL-28 melanoma) [µM] | TGI (LOX IMVI melanoma) [µM] | TGI (NCI-H460 lung) [µM] | TGI (IGROV1 ovarian) [µM] | TGI (SK-MEL-5 melanoma) [µM] | TGI (OVCAR-8 ovarian) [µM] | TGI (EKVX NSCLC) [µM] | TGI (SF-295 CNS) [µM] | TGI (KM12 colon) [µM] | TGI (HCT-116 colon) [µM] | TGI (SW-620 colon) [µM] | TGI (MALME-3M melanoma) [µM] | TGI (RXF 393 renal) [µM] | TGI (HCT-15 colon) [µM] | TGI (OVCAR-4 ovarian) [µM] | TGI (PC-3 prostate) [µM] | TGI (MDA-MB-435) [µM] | TGI (DU-145 prostate) [µM] | TGI (NCI/ADR-RES ovarian) [µM]
1 | CCC12CCCNC1c1c(n(C)c3ccccc13)C(C(=O)OC)C2 (stereo unspecified) | > 275 | > 275 | > 275 | > 275 | > 275 | 82.5 | > 275 | > 275 | 124 | 161 | > 275 | > 275 | > 275 | 153 | > 275 | – | – | – | – | –
2 | c1cnc2c(c1)-n1cccc1C1(CCSC1)NN2 (stereo unspecified) | > 100 | > 100 | > 100 | > 100 | – | > 100 | > 100 | > 100 | > 100 | > 100 | > 100 | > 100 | > 100 | – | > 100 | > 100 | – | – | – | –
3 | CC(C)OP(=O)(OC(C)C)c1ccc2c(c1)OCCOCCOCCOCCO2 | > 100 | > 100 | > 100 | > 100 | > 100 | > 100 | > 100 | > 100 | > 100 | > 100 | > 100 | > 100 | > 100 | – | > 100 | – | > 100 | > 100 | > 100 | –
4 | Cc1ccc(NCC(=O)N2CC(=O)Nc3ccccc32)cc1 | > 100 | > 100 | > 100 | > 100 | – | > 100 | > 100 | > 100 | > 100 | > 100 | > 100 | > 100 | > 100 | > 100 | > 100 | > 100 | – | – | – | –
5 | COc1cc(CNC2=NCCC2)cc(OC)c1OC | > 100 | > 100 | – | > 100 | > 100 | > 100 | > 100 | > 100 | > 100 | – | > 100 | > 100 | > 100 | > 100 | > 100 | > 100 | > 100 | – | > 100 | > 100
6 | CC(=O)OC1CC2(C)OC(Cc3ccccc32)O1 (stereo unspecified) | > 100 | > 100 | > 100 | > 100 | > 100 | – | > 100 | > 100 | > 100 | > 100 | > 100 | > 100 | > 100 | > 100 | – | – | – | – | – | –
7 | Cc1cc(C)n2c(-c3ccccc3)c(C)cc2n1 | > 100 | > 100 | > 100 | > 100 | > 100 | > 100 | > 100 | > 100 | > 100 | > 100 | > 100 | > 100 | > 100 | > 100 | > 100 | > 100 | – | – | – | –
8 | Cc1ccc2c(c1)C1C(CO2)C(c2ccccc2)=NN1c1ccccc1 (stereo unspecified) | > 100 | > 100 | > 100 | > 100 | > 100 | – | > 100 | > 100 | > 100 | > 100 | > 100 | > 100 | > 100 | > 100 | – | – | – | – | – | –
9 | Cc1ccc(N=C2S/C(=C3/CCC=C3N3CCOCC3)N(c3ccc(Cl)cc3)C2=Nc2ccc(C)cc2)cc1 | > 100 | > 100 | – | > 100 | > 100 | > 100 | > 100 | > 100 | – | > 100 | > 100 | > 100 | > 100 | > 100 | > 100 | – | > 100 | – | – | –
10 | COc1ccc(/C=C/C(=N/NC(=O)N/N=C(/C=C/c2ccc(OC)cc2)C(C)(C)CN2CCCCC2)C(C)(C)CN2CCCCC2)cc1 | 3.93 | 2.92 | 2.82 | 3.82 | 5.77 | 3.01 | 3.4 | > 10 | 3.45 | 3.27 | 2.6 | 4.48 | 3.42 | 2.72 | 7.06 | 3.96 | 6.62 | – | > 10 | 4.33
11 | CC(C)(C)CNC(=O)NCn1cc(-c2ccccc2)nn1 | > 100 | > 100 | > 100 | > 100 | > 100 | > 100 | > 100 | > 100 | > 100 | > 100 | > 100 | > 100 | > 100 | – | > 100 | – | > 100 | – | > 100 | > 100
12 | Cc1ccc2c(c1)C1(OC(=O)c3ccccc31)c1ccc(F)cc1O2 (stereo unspecified) | > 100 | – | > 100 | – | > 100 | > 100 | > 100 | > 100 | – | > 100 | > 100 | > 100 | > 100 | – | – | > 100 | – | – | – | –

— PubChem BioAssay (NCI)
